Measured values taken from PubChem BioAssay (NCI).
Values joined by “and” are separate entries in the source; they are usually repeats but may differ in a detail not shown here. Identical values can stand only once.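 Growth conditions: 96-well plates. Treatment: test compound, 48 hours, 5 concentrations. Analysis: linear interpolation between bracketing concentrations; unreached endpoints set to highest concentration. GI50 is the concentration that inhibits growth by half. Definition used: TGI = concentration required for complete inhibition of growth.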

Tests used:
Experiment in all cases: DTP human tumour cell line panel, 48 h
DU-145 prostate = test system: DU-145 prostate
OVCAR-3 ovarian = test system: OVCAR-3 ovarian
NCI-H226 lung = test system: NCI-H226 lung
HCT-116 colon = test system: HCT-116 colon
UACC-62 melanoma = test system: UACC-62 melanoma
HL-60(TB) leukemia = test system: HL-60(TB) leukemia
A549 NSCLC = test system: A549 NSCLC
HT29 colon = test system: HT29 colon
UO-31 renal = test system: UO-31 renal
A498 renal = test system: A498 renal

## c1ccc2c(c1)ccn2CCc1c[nH]c2ccccc12
DU-145 prostate
  TGI: > 10 µM
OVCAR-3 ovarian
  TGI: > 10 µM
NCI-H226 lung
  TGI: > 10 µM
HCT-116 colon
  TGI: > 10 µM
UACC-62 melanoma
  TGI: > 10 µM
HL-60(TB) leukemia
  TGI: > 10 µM
A549 NSCLC
  TGI: > 10 µM
HT29 colon
  TGI: > 10 µM
UO-31 renal
  TGI: > 10 µM

## OCC(O)COCn1nncc1Cn1ncc2c(SCc3ccccc3)ncnc21 (stereo not drawn)
DU-145 prostate
  TGI: > 100 µM
OVCAR-3 ovarian
  TGI: > 100 µM
HCT-116 colon
  TGI: > 100 µM
UACC-62 melanoma
  TGI: > 100 µM
A498 renal
  TGI: > 100 µM
A549 NSCLC
  TGI: > 100 µM
HT29 colon
  TGI: > 100 µM
UO-31 renal
  TGI: > 100 µM

## CC(C)[Si](OC1=C(C(=O)N(C)c2cccc(Cl)c2)CCCC1)(C(C)C)C(C)C
DU-145 prostate
  TGI: 25.5 µM
OVCAR-3 ovarian
  TGI: 27.6 µM
NCI-H226 lung
  TGI: 37.7 µM
UACC-62 melanoma
  TGI: 30.8 µM
HL-60(TB) leukemia
  TGI: 26.3 µM
A498 renal
  TGI: 31.5 µM
A549 NSCLC
  TGI: 19.9 µM
HT29 colon
  TGI: 31.1 µM
UO-31 renal
  TGI: 27.9 µM

## COc1cc(/C=C(\C#N)C(N)=O)cc(Br)c1O
OVCAR-3 ovarian
  TGI: > 100 µM
NCI-H226 lung
  TGI: > 100 µM
HCT-116 colon
  TGI: > 100 µM
UACC-62 melanoma
  GI50: 35.9 µM and > 100 µM
  TGI: > 100 µM
HL-60(TB) leukemia
  GI50: 83.8 µM and 59.8 µM
  TGI: > 100 µM
A498 renal
  GI50: > 100 µM and 60.3 µM
  TGI: > 100 µM
A549 NSCLC
  TGI: > 100 µM
HT29 colon
  TGI: > 100 µM
UO-31 renal
  TGI: > 100 µM

## CCOC(=O)CNc1c(OCc2ccccc2)c(=O)c1=O
DU-145 prostate
  TGI: > 100 µM
OVCAR-3 ovarian
  TGI: > 100 µM
NCI-H226 lung
  TGI: > 100 µM
HCT-116 colon
  TGI: > 100 µM
UACC-62 melanoma
  TGI: > 100 µM
A549 NSCLC
  TGI: > 100 µM
HT29 colon
  TGI: > 100 µM
UO-31 renal
  TGI: > 100 µM

## Oc1c(CN2CCOCC2)ccc2cccnc12
DU-145 prostate
  TGI: > 10 µM
OVCAR-3 ovarian
  TGI: > 10 µM
NCI-H226 lung
  TGI: > 10 µM
HCT-116 colon
  TGI: > 10 µM
A498 renal
  TGI: > 10 µM
A549 NSCLC
  TGI: > 10 µM
HT29 colon
  TGI: > 10 µM
UO-31 renal
  TGI: > 10 µM

## O=Cc1ccc2c(c1)CC1(Cc3ccccc3C1)C2
OVCAR-3 ovarian
  TGI: 28.3 µM
NCI-H226 lung
  TGI: 73.2 µM
HCT-116 colon
  TGI: > 100 µM
UACC-62 melanoma
  TGI: 41.4 µM
HL-60(TB) leukemia
  TGI: 39.5 µM
A498 renal
  TGI: 83.7 µM
A549 NSCLC
  TGI: > 100 µM
HT29 colon
  TGI: 51.2 µM
UO-31 renal
  TGI: 58.7 µM

## CC1NC(=O)CC(c2ccccc2)N(N=O)C1c1ccccc1 (stereo not drawn)
OVCAR-3 ovarian
  TGI: > 100 µM
NCI-H226 lung
  TGI: > 100 µM
HCT-116 colon
  TGI: > 100 µM
UACC-62 melanoma
  TGI: > 100 µM
HL-60(TB) leukemia
  TGI: > 67.2 µM
A498 renal
  TGI: 52.3 µM
A549 NSCLC
  TGI: > 100 µM
HT29 colon
  TGI: > 100 µM
UO-31 renal
  TGI: > 100 µM

## CCCCN1C(=O)N(c2ccc(OCC)cc2)C2N(CCCC)C1C(C)(C)C2(C)C (stereo not drawn)
DU-145 prostate
  TGI: > 100 µM
OVCAR-3 ovarian
  TGI: 54 µM
NCI-H226 lung
  TGI: 49.3 µM
HCT-116 colon
  TGI: > 100 µM
UACC-62 melanoma
  TGI: 50 µM
A498 renal
  TGI: > 100 µM
A549 NSCLC
  TGI: > 100 µM
HT29 colon
  TGI: > 100 µM
UO-31 renal
  TGI: 88.9 µM

## O=C(NNC(=S)Nc1cccc(Cl)c1)c1cc(-c2ccccc2)nc2ccccc12
DU-145 prostate
  TGI: 29.5 µM
OVCAR-3 ovarian
  TGI: 34.3 µM
NCI-H226 lung
  TGI: 40.5 µM
HCT-116 colon
  TGI: 30.3 µM
UACC-62 melanoma
  TGI: 26.7 µM
A549 NSCLC
  TGI: 32.3 µM
HT29 colon
  TGI: 45.3 µM
UO-31 renal
  TGI: 29.8 µM

## CCOC(=O)C(=Cc1[nH]c2ccccc2c1-c1c[nH]c2ccccc12)C(=O)OCC
DU-145 prostate
  TGI: 27.1 µM
OVCAR-3 ovarian
  TGI: 21.2 µM
NCI-H226 lung
  TGI: 37.5 µM
HCT-116 colon
  TGI: 22.8 µM
UACC-62 melanoma
  TGI: 19.4 µM
A498 renal
  TGI: 28.6 µM
A549 NSCLC
  TGI: 35.9 µM
HT29 colon
  TGI: 17.5 µM
UO-31 renal
  TGI: 26.3 µM
